Test results taken from patent US10287530B2, “Surfactants based on monounsaturated fatty alcohol derivatives” (priority 2013, dated 2019).
Like-named read-outs stand apart in the source and are kept apart here.

Tests used:
[1] = format: physicochemical; details: for Emulsion stability, mL separation, 1 h / Emulsion stability, mL separation, 24 h: 342 ppm water; for Rating: overall, versus control
Protocol: Surfactant candidates for water soluble herbicide applications are examined as a replacement for the anionic, nonionic, or anionic/nonionic blend portion and compared to a known industry adjuvant standard for use in paraquat, a water soluble herbicide concentrate formulation. A standard dilution test is conducted whereby the concentrates are diluted in water to determine if solubility is complete.
A known industry paraquat adjuvant (2.8 g) is added and vigorously mixed for 30 s. Deionized water (8.07 g) is added, and mixing resumes for 30 s. […] The cylinder is stoppered and inverted ten times. Solubility is recorded as complete or incomplete. Cylinders are allowed to stand and the amount (in mL) and type of separation are recorded after 30 min., 1 h, 2 h, and 24 h. Results of the solubility testing appear in Table 4 below.
An eight to ten mole alkyl phenol ethoxylate surfactant (0.7 g) is added and vigorously mixed for 30 s. Test sample (0.7 g) is added and mixing resumes for 30 s. Deionized water (4.03 g) is added, and mixing resumes for 30 s.
Test sample (0.7 g) is added and vigorously mixed for 30 s. Sodium linear alkylbenzene sulfonate (“NaLAS,” 0.7 g) is added and mixing resumes for 30 s. Deionized water (4.03 g) is added, and mixing resumes for 30 s.
Test sample (1.4 g) is added and vigorously mixed for 30 s. Deionized water (4.03 g) is added, and mixing resumes for 30 s.

[2] = Agricultural dispersant screening: sedimentation of milled pesticide powder; format: physicochemical; design: key to Sedimentation results at 1 h: Trace of sediment=“Tr”; details: for Rating: overall, versus DF-200 and DF-500 controls
Protocol: The potential of a composition for use as an agricultural dispersant is evaluated by its performance with five typical pesticide active ingredients: atrazine, chlorothalonil, diuron, imidacloprid and tebuconazole. The performance of each dispersant sample is evaluated in comparison with two standard Stepsperse® dispersants: DF-200 and DF-500 (products of Stepan Company).
A screening sample is prepared as shown below for each active. Wetting agents, clays, and various additives are included or excluded from the screening process as needed. The weight percent of pesticide (“technical material”) in the formulation depends on the desired active level of the final product. The active level chosen is similar to other products on the market. If this is a new active ingredient, then the highest active level is used.
Samples are evaluated in waters of varying hardness, in this case 342 ppm and 1000 ppm. The initial evaluations are performed at ambient temperature. Other temperatures can be evaluated as desired. The 342 ppm water is made by dissolving anhydrous calcium chloride (0.304 g) and magnesium chloride hexahydrate (0.139 g) in deionized water and diluting to 1 L. The 1000 ppm water is made similarly using 0.89 g of calcium chloride and 0.40 g of magnesium chloride hexahydrate.
Technical material (60-92.5 wt. %), anionic wetting agent (0.5-1.0 wt. %), silica (0.5-1.0 wt. %), and clay (balance) are blended in a suitable container. The blend is milled to a particle size of at least a d(90) of <20μ using a hammer and air/jet mills as needed. Test dispersant (0.1 g) is added to test water (50 mL) in a beaker and stirred 1-2 min. Milled powder containing the technical material (1.0 g) is added to the dispersant solution and stirred until all powder is wet (2-5 min.). The mixture is transferred to a 100-mL cylinder using additional test water for rinsing the beaker and is then diluted to volume. The cylinder is stoppered and inverted ten times, then allowed to stand. Visual inspection is performed at t=0.5, 1.0, 2.0, and 24 hours, and the amount of sediment observed (in mL) is recorded. Trace of sediment=“Tr” (see Table 5).

[3] = Surfactant phase behavior study by cross-polarized microscopy; format: physicochemical; details: in deionized water, room temperature (20-22° C.); boundaries are estimates (±5%)
Protocol: Phase behavior is observed using an Olympus BH-2 cross-polarized microscope at 100-400× and room temperature (20° C. to 22° C.). The monounsaturated C11 alcohol derivatives (sulfates, ethoxylate sulfates, and alcohol ethoxylates) are compared with their saturated analogs. Samples are prepared by diluting the most concentrated product gradually with deionized water. When the surfactant concentration approaches a phase transition, the concentration is varied at 2-4% intervals to estimate the phase boundary. The actives level reported in Table 6 for each phase boundary is within ±5% of the true boundary. Samples are loaded between a microscope slide and cover glass and are allowed to equilibrate before observation. Microscopic texture is analyzed and used to determine the phase. For some samples, an AR 2000 rheometer (TA Instruments) is used to measure viscosity at 25° C. to further verify phase behavior.

[4] = Appearance and solubility of surfactants and of 1:1 molar blends with cationic surfactant; format: physicochemical; details: for Appearance, 1.0%: 1:1 molar blend of the anionic with Ammonyx Cetac 30, 1.0% actives
Protocol: The surfactant blends tested are prepared at a 1:1 molar ratio without any pH adjustment. Dilutions are made using deionized water to the desired actives level. Actives amounts are wt. % unless indicated otherwise. Appearances are reported at ambient temperature for samples prepared within the last 24 h.

[5] = Adjuvant (anionic/nonionic) test sample
[6] = Chlorothalonil, test water 342 ppm
[7] = Chlorothalonil, test water 1000 ppm
[8] = Imidacloprid, test water 342 ppm
[9] = Imidacloprid, test water 1000 ppm
[10] = Tebuconazole, test water 342 ppm
[11] = Tebuconazole, test water 1000 ppm

| Substance | Emulsion stability, mL separation, 1 h [1, 5] | Emulsion stability, mL separation, 24 h [1, 5] | Emulsion stability, mL separation, 1 h ([1]; Anionic test sample) | Emulsion stability, mL separation, 24 h ([1]; Anionic test sample) | Emulsion stability, mL separation, 1 h ([1]; Nonionic test sample) | Emulsion stability, mL separation, 24 h ([1]; Nonionic test sample) | Rating [1] | Sedimentation results at 1 h ([2]; Atrazine, test water 342 ppm) | Sedimentation results at 24 h ([2]; Atrazine, test water 342 ppm) | Sedimentation results at 1 h ([2]; Atrazine, test water 1000 ppm) | Sedimentation results at 24 h ([2]; Atrazine, test water 1000 ppm) | Sedimentation results at 1 h [2, 6] | Sedimentation results at 24 h [2, 6] | Sedimentation results at 1 h [2, 7] | Sedimentation results at 24 h [2, 7] | Sedimentation results at 1 h ([2]; Diuron, test water 342 ppm) | Sedimentation results at 24 h ([2]; Diuron, test water 342 ppm) | Sedimentation results at 1 h ([2]; Diuron, test water 1000 ppm) | Sedimentation results at 24 h ([2]; Diuron, test water 1000 ppm) | Sedimentation results at 1 h [2, 8] | also measured |
| --- | --- | --- | --- | --- | --- | --- | --- | --- | --- | --- | --- | --- | --- | --- | --- | --- | --- | --- | --- | --- | --- |
| 1-Undecanol, 1EO Ether Sulfate, Sodium Salt [Sat. C11 alcohol 1EO Na sulfate] | 0 mL | 0.2 mL | 0 mL | 0 mL | 0.2 mL | 0.5 mL | good | Tr | 1 mL | 0.5 mL | 1 mL | 0.5 mL | 1 mL | 0.5 mL | 2 mL | 0.5 mL | 1 mL | 1 mL | 2 mL | 1 mL | Sedimentation results at 24 h [2, 8]: 2 mL; Sedimentation results at 1 h [2, 9]: 2.5 mL; Sedimentation results at 24 h [2, 9]: 2 mL; Sedimentation results at 1 h [2, 10]: Tr; Sedimentation results at 24 h [2, 10]: 0.5 mL; Sedimentation results at 1 h [2, 11]: 5 mL; Sedimentation results at 24 h [2, 11]: 3 mL; Rating [2]: equal; Estimated Phase Region as a Function of % Actives Level: Hexagonal [3]: 36-58 % actives; Estimated Phase Region as a Function of % Actives Level: Isotropic Clear [3]: 0-36 % actives; Estimated Phase Region as a Function of % Actives Level: Lamellar [3]: 58-72 % actives; Estimated Phase Region as a Function of % Actives Level: Solid/gum/paste [3]: 72-100 % actives; Solubility [4]: fair-poor; Appearance, 0.1% ([4]; 1:1 molar blend of the anionic with Ammonyx Cetac 30, 0.1% actives, ambient temperature): hazy liquid; Appearance, 1.0% ([4]; ambient temperature): separated |
| Undecylenic Alcohol, 1EO Ether Sulfate, Sodium Salt [Unsat. C11 alcohol 1EO Na sulfate] | 0 mL | 0.5 mL | 0 mL | 0 mL | 0.2 mL | 0.25 mL | good | Tr | 1 mL | 0.5 mL | 1 mL | Tr | 1 mL | 0.5 mL | 1 mL | 0.5 mL | 1 mL | 1 mL | 2 mL | 3 mL | Sedimentation results at 24 h [2, 8]: 4 mL; Sedimentation results at 1 h [2, 9]: 3, 3 mL; Sedimentation results at 24 h [2, 9]: 3, 3 mL; Sedimentation results at 1 h [2, 10]: Tr; Sedimentation results at 24 h [2, 10]: 2 mL; Sedimentation observation (flock) [2, 11]: flocked; Rating [2]: equal; Estimated Phase Region as a Function of % Actives Level: Isotropic Clear [3]: 0-64 % actives; Estimated Phase Region as a Function of % Actives Level: Solid/gum/paste [3]: 74-100 % actives; Estimated Phase Region as a Function of % Actives Level: Solid/isotropic [3]: 64-74 % actives; Solubility [4]: good; Appearance, 1.0% ([4]; ambient temperature): separated |
